Source: ChEMBL document CHEMBL3875187, “Structure-activity relationship study of a small cyclic peptide H-c[Lys-Pro-Glu]-Arg-OH: a potent inhibitor of Vascular Endothelial Growth Factor interaction with Neuropilin-1” (Bioorg Med Chem, 2017)
Positions of bridges follow the written chain, without caps; N, C: chain ends. Non-standard residues stand in square brackets, D forms with d. Residues, ends and D or L forms follow the SMILES beside them. Orn = NCCC[C@H](N)C(=O)O

Key:
[1] = target: Neuropilin-1 (Rattus norvegicus) (UniProt Q9QWJ9); experiment: Inhibition of biotin-labelled VEGF165 binding to rat recombinant NRP-1/Fc chimeric protein at 10 uM incubated for overnight by competitive ELISA method relative to control
[2] = target: Neuropilin-1 (Rattus norvegicus) (UniProt Q9QWJ9); experiment: Inhibition of biotin-labelled VEGF165 binding to rat recombinant NRP-1/Fc chimeric protein at 3 uM incubated for overnight by competitive ELISA method relative to control
[3] = target: Neuropilin-1 (Rattus norvegicus) (UniProt Q9QWJ9); experiment: Inhibition of biotin-labelled VEGF165 binding to rat recombinant NRP-1/Fc chimeric protein at 1 uM incubated for overnight by competitive ELISA method relative to control
[4] = target: Neuropilin-1 (Rattus norvegicus) (UniProt Q9QWJ9); experiment: Inhibition of biotin labelled VEGF165 binding to rat recombinant NRP-1/Fc chimeric protein at 0.3 uM incubated for overnight by competitive ELISA method relative to control
Neuropilin-1 = Neuropilin-1 (Rattus norvegicus, UniProt Q9QWJ9); experiment: Inhibition of biotin labelled VEGF165 binding to rat recombinant NRP-1/Fc chimeric protein incubated for overnight by competitive ELISA method
[5] = Cytotoxicity against human MDA-MB-231 cells at 10 to 1000 uM measured after 24 to 96 hrs by MTS assay; format: toxicity, cell-based; conditions: mda-mb-231, 1000 µM
[6] = Cytotoxicity against HUVEC at 10 to 1000 uM measured after 24 to 96 hrs by MTS assay; format: toxicity, cell-based; conditions: human

Row | Structure (SMILES) | inhibition [1] | inhibition [2] | inhibition [3] | inhibition [4] | IC50 (Neuropilin-1; read-out: IC50) | IC50 (Neuropilin-1; read-out: pIC50 (converted)) | Activity [5] | Activity [6]
1 | N=C(N)NCCC[C@H](NC(=O)CC[C@@H]1NC(=O)[C@H]2CCCN2C(=O)[C@@H](N)CCCCNC(=O)CC[C@@H](C(=O)N[C@@H](CCCNC(=N)N)C(=O)O)NC(=O)[C@H]2CCCN2C(=O)[C@H](CCCCN)NC1=O)C(=O)O | 86.8% | 72.2% | 46.6% | 30.1% | 890 nM | 1000 nM |  | 
2 | N=C(N)NCCC[C@H](NC(=O)[C@@H]1CCCCNC(=O)CC[C@H](N)C(=O)N2CCC[C@H]2C(=O)N1)C(=O)O (H-EPKR-OH; lactam 1-3) | 89% | 85.4% | 79% | 68.3% | 160 nM |  | Non-Toxic | Non-Toxic
3 | N=C(N)NCCC[C@H](NC(=O)[C@@H]1CC(=O)NCCCC[C@H](N)C(=O)N2CCC[C@H]2C(=O)N1)C(=O)O (H-KPDR-OH; lactam 1-3) | 14.7% | 12.5% | 11.8% |  | > 10000 nM |  |  | 
4 | N=C(N)NCCC[C@H](NC(=O)[C@@H]1CCC(=O)NCCC[C@H](N)C(=O)N2CCC[C@H]2C(=O)N1)C(=O)O (H-[Orn]PER-OH; lactam 1-3) | 46.6% | 35.4% | 27.8% | 14.6% | > 10000 nM |  |  | 
5 | N=C(N)NCCC[C@H](NC(=O)[C@@H]1CCC(=O)NCCCC[C@@H](N)C(=O)N2CCC[C@H]2C(=O)N1)C(=O)O (H-[dK]PER-OH; lactam 1-3) | 4% | 2.3% | 1.1% |  | > 10000 nM |  |  | 
